Data set [1] relates to inhibitory interneurons of SOD1 mutants. The following applies: 1 μM; cited from earlier work.
For data set [2], the system named is SOD1 G93R mutant zebrafish larvae. Description: Behavioral analysis (DanioVision): locomotor activity, distance moved. The data set is classed as in vivo, zebrafish (Danio rerio). The following applies: for distance moved, elevation compared to non-treated SOD1 mutant, whole period of measurement: 6 dpf larvae; for distance moved compared to non-treated SOD1 mutant, whole experiment: 10 μM in swimming water; for effect on locomotor activity during all three experimental phases: spontaneous swimming, light/dark challenge, recovery from challenge. An excerpt: (§1) Treatment protocol SOD1 G93R mutant or WT fish were collected and raised according to accepted and approved protocols, see Westerfield M. The Zebrafish Book: a Guide for the Laboratory Use of Zebrafish (Danio rerio) 2000, incorporated herein as reference. Larvae's morphology was observed (heart rate, overall morphology and behavior) at each day.
Two-hundred and forty (240) larvae were selected from the same laying batch to be introduced to three distinct treatments and a control (n=60 per each treatment). First and second treatments were conducted at 3 and 5 days post fertilization (dpf), respectively, when the blood brain barrier (BBB) is fully closed, and the motor neurons (MNs) and neuromuscular junctions (NMJs) are fully developed. The materials were administrated in the swimming water (DB). At day 6, larvae were taken to behavioral analysis using the automated DanioVision™ system. Following analysis, larvae were fixed and whole-mount immunohistochemistry procedure was conducted to be used for high resolution morphological analysis. Treatment protocol is detailed in FIG. 1.
Behavioral analysis DanioVision™, an automated high-throughput tracking system of zebrafish larvae from Noldus Information Technology (Wageningen, the Netherlands), including control of light and dark conditions was used for the measurements and analysis of the results. Each single larvae was put in a single well, with the same volume of swimming water to ensure uniform background. Each animal was tested for its x,y position using dynamic subtraction 30 times per second. The distance each larvae moved in mm was calculated from the x,y position and averaged per time bin of 1 minute (average of 1800 measurements per each 1 minute). The behavioral profile was measured in 3 phases according to changes in environment that we applied, to introduce additional muscle and neurological stress. Spontaneous swimming, light/dark challenge (opto-kinetic response) and recovery from challenge behaviors were recorded and analyzed. All animals from the same treatment: wild type (WT), SOD1 mutant non-treated or treated were averaged per time bin of 1 minute to examine their reaction to additional stress, and then calculated for the whole period of time to get a relative number compared to the non-treated SOD1 mutant swimming behavior. Statistical analysis used was paired Student's t-tests (two-tailed) with two-sample assuming unequal variances. All P-values reported are two-tailed and the significance level was set at 0.05 (*), 0.01 to 0.001 (**) and below 0.001 (***).

The test system of data set [3] is ALS patients. The following applies: clinical trial; cited from earlier work.
Data set [4] deals with chronic electrode-implanted rats. The following applies: cited from earlier work; for EEG and behavior after intraventricular injection: relatively high dose.
The subject of data set [5] is SOD1 G93R mutant zebrafish larvae. The experiment in a line: Toxicity analysis of larvae (morphology, cardiovascular system, behavior, mortality). The data set is classed as in vivo, zebrafish (Danio rerio). As for the experimental part:
as §1
Toxicity analysis Fish were observed during the day of administration and the following days to observe toxicity. Acute toxicity was evaluated for apoptosis/necrosis and cardiovascular system abnormalities (heart rate, morphology, hemorrhage and edema). Head, eyes and overall morphological and behavioral toxicity were recorded according to accepted procedures^28.

The subject of data set [6] is ALS mouse models. As to conditions: enhancement of DICER activity; cited from earlier work.
Data set [7] deals with Pseudomonas aeruginosa. As to conditions: cited from earlier work.
The subject of data set [8] is RNAi. The following applies: cited from earlier work.
Data set [9] concerns cytochrome P450 (CYP450) 2C9 and 3A4. As to conditions: cited from earlier work.
Setting [10] is: 100 μM in swimming water, 0.1% DMSO.
[11] abbreviates: 100 μM, recovery from challenge phase.
Setting [12] is: 100 μM, spontaneous swimming phase.

The structures appear in SMILES notation. “And” between values parts separate entries of the source, which are not always exact repeats. Identical values can stand only once. “Also recorded” adds a separate entry of the source.

Take `Nc1nc2ccc(OC(F)(F)F)cc2s1` [Riluzole]: in [1], the “neuronal stress in inhibitory interneurons” value is recorded as “reduced”. In data set [2] (1 μM in swimming water), the “distance moved, elevation compared to non-treated SOD1 mutant, whole period of measurement” value is 36% and 36.8%. Besides, the “locomotor activity, increase vs non-treated SOD1 mutant, light/dark challenge” value in data set [2] (1 μM, light/dark challenge phase (10-20 min)) amounted to 32%. In addition, the “locomotor activity, increase vs non-treated SOD1 mutant, recovery from challenge” value in data set [2] (1 μM, recovery from challenge phase (last 10 minutes)) was found to be 39.7%. In addition, the “locomotor activity, increase vs non-treated SOD1 mutant, spontaneous swimming” value in data set [2] (1 μM, spontaneous swimming phase (0-10 min)) is 38%. The “effect on ALS disease progression” value in data set [3] is “modestly slowed ALS progression”.
In the case of `CCOC(=O)Cc1ccc(-c2ccccc2)cc1` [Ferubinac ethyl], the “EEG and behavior after intraventricular injection” value in data set [4] was “spike and wave complex in EEG without showing remarkable behavioral changes”.
In the case of `CCn1cc(C(=O)O)c(=O)c2cc(F)c(N3CCNCC3)nc21` [Enoxacin], the “drug induced effects in morphology or mortality” value in [5] (Enoxacin 10 μM and 100 μM, 0.1% DMSO) was “no drug induced effects in morphology or mortality were observed”. Moreover, the “epileptogenic activity, EEG” value in [4] (intraventricular, 50 and 100 micrograms) is given as “potent epileptogenic activity”. For the same compound, the “distance moved compared to non-treated SOD1 mutant, whole experiment” value in data set [2] (0.1% DMSO) is listed as “not changed”. Also, the “effect on locomotor activity during all three experimental phases” value in [2] (10 μM) is reported as “nearly no effect”. The “distance moved, elevation compared to non-treated SOD1 mutant, whole period of measurement” value stood at 20% in data set [2] (setting [10]) and 19.9% in data set [2] (100 μM in swimming water, 0.1% DMSO, listed as enoxacin). The “locomotor activity, increase vs non-treated SOD1 mutant, light/dark challenge” value in data set [2] (100 μM, light/dark challenge phase) was 21%. In addition, in data set [2] (setting [11]), the “locomotor activity, increase vs non-treated SOD1 mutant, recovery from challenge” value was 17.6%. Moreover, the “locomotor activity, increase vs non-treated SOD1 mutant, spontaneous swimming” value in [2] (setting [12]) was determined as 20.1%. Moreover, the “effect in two independent ALS mouse models” value in data set [6] was “beneficial in vivo”.
Regarding `O=C(O)c1cn(C2CC2)c2cc(N3CCNCC3)c(F)cc2c1=O` [Ciprofloxacin], the “potency against Pseudomonas aeruginosa among quinolones” value in data set [7] is given as “most potent quinolone”. The RNAi-enhancing activity result in data set [8] was “substantial RNAi-enhancing activity”. Also, the “distance moved compared to non-treated SOD1 mutant, whole experiment” value in [2] (0.1% DMSO) was “did not significantly affect locomotor activity; also recorded: not changed”. Further, the “effect on locomotor activity during all three experimental phases” value in data set [2] (10 μM) is reported as “nearly no effect”. Besides, the “locomotor activity of Ciprofloxacin compared to Enoxacin treatment” value in data set [2] (100 μM each, spontaneous swimming and recovery from challenge) is given as “elevated locomotor activity compared to Enoxacin treatment”. Also, the “distance moved, elevation compared to non-treated SOD1 mutant, whole period of measurement” value in data set [2] (setting [10]) is 18% and 17.8%. The “locomotor activity, increase vs non-treated SOD1 mutant, recovery from challenge” value in data set [2] (setting [11]) is 33.5%. In addition, the “locomotor activity, increase vs non-treated SOD1 mutant, spontaneous swimming” value in [2] (setting [12]) is on record as 26.2%. The “effect on locomotor activity under dark conditions” value in [2] (1, 10, 50, 100, 200 and 500 μM) was “nearly no effect”. The “locomotor activity in the phase of recovery from stress, dose response” value in data set [2] (50, 100, 200 and 500 μM, second phase of light) is “dose dependent curve that eventually ended in a plateau”. In data set [2] (200 and 500 μM, spontaneous swimming phase), the “effect on spontaneous swimming at high concentrations” value is recorded as “did not cause elevation in spontaneous swimming”. Further, in data set [2] (tested 1-500 μM), the “most potent concentration in affecting locomotor activity” value was 100 µM.
For `Cc1ccc(-c2cc(C(F)(F)F)nn2-c2ccc(S(N)(=O)=O)cc2)cc1` [Celecoxib], in [9], the metabolism in vivo result was “oxidized by cytochrome P450 (CYP450) 2C9 and 3A4 to the inactive metabolite hydroxycelecoxib”. Also, in data set [5] (30 μM, 0.3% DMSO, SOD1 mutants and WT), the “toxicity at high concentration” value is “cardiovascular toxicity and death”. The “toxicity at lower concentrations” value in [5] (below 10 μM (0.3% DMSO) / 5 μM (0.1% DMSO)) is on record as “no toxicity was evident”. Further, in data set [2] (1 μM in swimming water), the “distance moved, elevation compared to non-treated SOD1 mutant, whole period of measurement” value is given as 6%. Also, the “locomotor effect of Celecoxib at 5 μM” value in data set [2] (5 μM, 0.1% DMSO background) is reported as “subtle locomotor decline; also recorded: reduction in locomotor ability”. The “locomotor effect of Celecoxib at 10 μM” value in data set [2] (10 μM, 0.3% DMSO background) is reported as “subtle locomotor decline; also recorded: Subtle locomotor reduction”.
With `CC(=O)Oc1ccccc1C(=O)O.NCCCCC(N)C(=O)O` (racemic) [aspirin DL-lysine], in data set [4], the “EEG and behavior after intraventricular injection” value was “spike and wave complex in EEG without showing remarkable behavioral changes”.
